Source: US20100267561A1, “HERBICIDAL PYRIDAZINONE DERIVATIVES” (priority 2007, published 2010)

Columns and labels:
Experiment in all cases: Test B pre-/postemergence plant response
Format in all cases: in vivo
[1] = tested on: blackgrass (Alopecurus myosuroides); conditions: for Blackgrass plant response rating: 8 g ai/ha
Procedure, shortened: (§1)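 Preemergence and postemergence (plants 2-18 cm, 1- to 4-leaf stage) applications used test chemicals in a non-phytotoxic solvent with surfactant. Plants were held in a greenhouse 13 to 15 days, then rated visually against controls on a 0-100 scale (0 no effect, 100 complete control).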

[2] = tested on: catchweed bedstraw (Galium aparine); conditions: Preemergence; for Galium plant response rating: scale 0 to 100
Procedure, shortened: as §1

[3] = tested on: common ragweed (Ambrosia elation)
Procedure, shortened: as §1

corn (Zea mays) = tested on: corn (Zea mays)
Procedure, shortened: as §1

[4] = tested on: downy bromegrass (Bromus tectorum); conditions: for Bromegrass, Downy plant response rating: 8 g ai/ha
Procedure, shortened: as §1

[5] = tested on: giant foxtail (Setaria faberii)
Procedure, shortened: as §1

[6] = tested on: goosegrass (Eleusine indica)
Procedure, shortened: as §1

[7] = tested on: green foxtail (Setaria viridis)
Procedure, shortened: as §1

[8] = tested on: lambsquarters (Chenopodium album)
Procedure, shortened: as §1

[9] = tested on: morningglory (Ipomoea coccinea)
Procedure, shortened: as §1

[10] = tested on: pigweed (Amaranthus retroflexus)
Procedure, shortened: as §1

[11] = tested on: surinam grass (Brachiaria decumbens)
Procedure, shortened: as §1

wild oat (Avena fatua) = tested on: wild oat (Avena fatua)
Procedure, shortened: as §1

[12] = tested on: woolly cupgrass (Eriochloa villosa)
Procedure, shortened: as §1

[13] = Postemergence, 16 g ai/ha, scale 0 to 100
[14] = Postemergence, 31 g ai/ha, scale 0 to 100
[15] = Postemergence, 62 g ai/ha, scale 0 to 100, 0 no effect, 100 complete control
[16] = Preemergence, 16 g ai/ha, scale 0 to 100 (0 no effect, 100 complete control)
[17] = Preemergence, 31 g ai/ha, scale 0 to 100 (0 no effect, 100 complete control)
[18] = Preemergence, 62 g ai/ha, 0 to 100 scale, 0 no effect, 100 complete control
[19] = 31 g ai/ha, scale 0 to 100 (0 no effect, 100 complete control)
[20] = 62 g ai/ha, 0 to 100 scale, 0 no effect, 100 complete control
[21] = 8 g ai/ha, postemergence, 0-100 scale
[22] = 16 g ai/ha, postemergence, 0-100 scale
[23] = Preemergence, 8 g ai/ha, scale 0 to 100
[24] = Preemergence, 16 g ai/ha, scale 0 to 100

CCc1cc(-c2ccc(C(F)(F)F)cc2)nn1-c1c(O)c(OC)nn(C)c1=O [Compound 66]
Blackgrass plant response rating ([1]; postemergence, 0-100 scale): 90
Plant response rating, Blackgrass [1, 13]: 100
Plant response rating, Blackgrass [1, 14]: 100
Plant response rating, Blackgrass [1, 15]: 100
Plant response rating, Blackgrass [1, 16]: 100
Plant response rating, Blackgrass [1, 17]: 100
Plant response rating, Blackgrass [1, 18]: 100
Blackgrass plant response rating ([1]; Preemergence, scale 0 to 100): 90
Plant response rating, Galium [2, 19]: 0
Plant response rating, Galium [2, 20]: 0
Galium plant response rating ([2]; 8 g ai/ha): 0
Galium plant response rating ([2]; 16 g ai/ha): 0
Ragweed plant response rating [3, 21]: 0
Ragweed plant response rating [3, 22]: 0
Plant response rating, Ragweed [3, 14]: 0
Plant response rating, Ragweed [3, 15]: 0
Plant response rating, Ragweed [3, 18]: 0
Ragweed plant response rating [3, 23]: 0
Ragweed plant response rating [3, 24]: 0
Corn plant response rating (corn (Zea mays); [21]): 65
Plant response rating, Corn (corn (Zea mays); [13]): 75
Plant response rating, Corn (corn (Zea mays); [14]): 90
Plant response rating, Corn (corn (Zea mays); [15]): 100
Plant response rating, Corn (corn (Zea mays); [17]): 98
Plant response rating, Corn (corn (Zea mays); [18]): 100
Corn plant response rating (corn (Zea mays); [23]): 0
Corn plant response rating (corn (Zea mays); [24]): 70
Bromegrass, Downy plant response rating ([4]; postemergence, 0-100 scale): 80
Plant response rating, Bromegrass, Downy [4, 13]: 95
Plant response rating, Bromegrass, Downy [4, 14]: 98
Plant response rating, Bromegrass, Downy [4, 15]: 98
Plant response rating, Bromegrass, Downy [4, 16]: 85
Plant response rating, Bromegrass, Downy [4, 17]: 100
Plant response rating, Bromegrass, Downy [4, 18]: 100
Bromegrass, Downy plant response rating ([4]; Preemergence, scale 0 to 100): 85
Foxtail, Giant plant response rating [5, 21]: 85
Plant response rating, Foxtail, Giant [5, 13]: 98
Plant response rating, Foxtail, Giant [5, 14]: 100
Plant response rating, Foxtail, Giant [5, 15]: 100
Plant response rating, Foxtail, Giant [5, 17]: 95
Plant response rating, Foxtail, Giant [5, 18]: 95
Foxtail, Giant plant response rating [5, 23]: 0
Foxtail, Giant plant response rating [5, 24]: 45
Goosegrass plant response rating [6, 21]: 70
Goosegrass plant response rating [6, 22]: 75
Plant response rating, Goosegrass [6, 14]: 85
Plant response rating, Goosegrass [6, 15]: 98
Plant response rating, Goosegrass [6, 17]: 25
Plant response rating, Goosegrass [6, 18]: 70
Goosegrass plant response rating [6, 23]: 0
Goosegrass plant response rating [6, 24]: 0
Foxtail, Green plant response rating [7, 21]: 80
Plant response rating, Foxtail, Green [7, 13]: 100
Plant response rating, Foxtail, Green [7, 14]: 100
Plant response rating, Foxtail, Green [7, 15]: 100
Plant response rating, Foxtail, Green [7, 17]: 100
Plant response rating, Foxtail, Green [7, 18]: 100
Foxtail, Green plant response rating [7, 23]: 98
Foxtail, Green plant response rating [7, 24]: 100
Lambsquarters plant response rating [8, 21]: 0
Lambsquarters plant response rating [8, 22]: 0
Plant response rating, Lambsquarters [8, 14]: 0
Plant response rating, Lambsquarters [8, 15]: 0
Morningglory plant response rating [9, 21]: 0
Morningglory plant response rating [9, 22]: 0
Plant response rating, Morningglory [9, 14]: 0
Plant response rating, Morningglory [9, 15]: 0
Plant response rating, Morningglory [9, 17]: 0
Plant response rating, Morningglory [9, 18]: 0
Morningglory plant response rating [9, 23]: 0
Morningglory plant response rating [9, 24]: 0
Pigweed plant response rating [10, 21]: 0
Pigweed plant response rating [10, 22]: 0
Plant response rating, Pigweed [10, 14]: 0
Plant response rating, Pigweed [10, 15]: 0
Plant response rating, Pigweed [10, 17]: 0
Plant response rating, Pigweed [10, 18]: 95
Pigweed plant response rating [10, 23]: 0
Pigweed plant response rating [10, 24]: 0
Surinam Grass plant response rating [11, 21]: 95
Surinam Grass plant response rating [11, 22]: 98
Plant response rating, Surinam Grass [11, 14]: 100
Plant response rating, Surinam Grass [11, 15]: 100
Plant response rating, Surinam Grass [11, 17]: 98
Plant response rating, Surinam Grass [11, 18]: 98
Surinam Grass plant response rating [11, 23]: 0
Surinam Grass plant response rating [11, 24]: 80
Oat, Wild plant response rating (wild oat (Avena fatua); [21]): 95
Oat, Wild plant response rating (wild oat (Avena fatua); [22]): 100
Plant response rating, Oat, Wild (wild oat (Avena fatua); [14]): 100
Plant response rating, Oat, Wild (wild oat (Avena fatua); [15]): 100
Plant response rating, Oat, Wild (wild oat (Avena fatua); [17]): 95
Plant response rating, Oat, Wild (wild oat (Avena fatua); [18]): 100
Oat, Wild plant response rating (wild oat (Avena fatua); [23]): 90
Oat, Wild plant response rating (wild oat (Avena fatua); [24]): 95
Cupgrass, Woolly plant response rating [12, 21]: 90
Plant response rating, Cupgrass, Woolly [12, 13]: 95
Plant response rating, Cupgrass, Woolly [12, 14]: 100
Plant response rating, Cupgrass, Woolly [12, 15]: 100
Plant response rating, Cupgrass, Woolly [12, 17]: 90
Plant response rating, Cupgrass, Woolly [12, 18]: 98
Cupgrass, Woolly plant response rating [12, 23]: 0
Cupgrass, Woolly plant response rating [12, 24]: 80

CCCc1cc(-c2ccc(C(F)(F)F)cc2)nn1-c1c(O)cnn(C)c1=O [Compound 72]
Blackgrass plant response rating ([1]; postemergence, 0-100 scale): 80
Plant response rating, Blackgrass [1, 13]: 95
Plant response rating, Blackgrass [1, 14]: 98
Plant response rating, Blackgrass [1, 15]: 100
Plant response rating, Blackgrass [1, 16]: 90
Plant response rating, Blackgrass [1, 17]: 95
Plant response rating, Blackgrass [1, 18]: 100
Blackgrass plant response rating ([1]; Preemergence, scale 0 to 100): 60
Plant response rating, Galium [2, 19]: 0
Plant response rating, Galium [2, 20]: 0
Galium plant response rating ([2]; 8 g ai/ha): 0
Galium plant response rating ([2]; 16 g ai/ha): 0
Ragweed plant response rating [3, 21]: 0
Ragweed plant response rating [3, 22]: 0
Plant response rating, Ragweed [3, 14]: 0
Plant response rating, Ragweed [3, 15]: 0
Plant response rating, Ragweed [3, 17]: 0
Plant response rating, Ragweed [3, 18]: 10
Ragweed plant response rating [3, 23]: 0
Ragweed plant response rating [3, 24]: 0
Corn plant response rating (corn (Zea mays); [21]): 50
Plant response rating, Corn (corn (Zea mays); [13]): 90
Plant response rating, Corn (corn (Zea mays); [14]): 90
Plant response rating, Corn (corn (Zea mays); [15]): 100
Plant response rating, Corn (corn (Zea mays); [17]): 85
Plant response rating, Corn (corn (Zea mays); [18]): 100
Corn plant response rating (corn (Zea mays); [23]): 70
Corn plant response rating (corn (Zea mays); [24]): 80
Bromegrass, Downy plant response rating ([4]; postemergence, 0-100 scale): 20
Plant response rating, Bromegrass, Downy [4, 13]: 30
Plant response rating, Bromegrass, Downy [4, 14]: 30
Plant response rating, Bromegrass, Downy [4, 15]: 30
Plant response rating, Bromegrass, Downy [4, 16]: 30
Plant response rating, Bromegrass, Downy [4, 17]: 50
Plant response rating, Bromegrass, Downy [4, 18]: 95
Bromegrass, Downy plant response rating ([4]; Preemergence, scale 0 to 100): 0
Foxtail, Giant plant response rating [5, 21]: 95
Plant response rating, Foxtail, Giant [5, 13]: 100
Plant response rating, Foxtail, Giant [5, 14]: 100
Plant response rating, Foxtail, Giant [5, 15]: 100
Plant response rating, Foxtail, Giant [5, 17]: 100
Plant response rating, Foxtail, Giant [5, 18]: 100
Foxtail, Giant plant response rating [5, 23]: 70
Foxtail, Giant plant response rating [5, 24]: 85
Goosegrass plant response rating [6, 21]: 30
Goosegrass plant response rating [6, 22]: 30
Plant response rating, Goosegrass [6, 14]: 35
Plant response rating, Goosegrass [6, 15]: 35
Plant response rating, Goosegrass [6, 17]: 95
Plant response rating, Goosegrass [6, 18]: 100
Goosegrass plant response rating [6, 23]: 95
Goosegrass plant response rating [6, 24]: 95
Foxtail, Green plant response rating [7, 21]: 98
Plant response rating, Foxtail, Green [7, 13]: 98
Plant response rating, Foxtail, Green [7, 14]: 100
Plant response rating, Foxtail, Green [7, 15]: 100
Plant response rating, Foxtail, Green [7, 17]: 100
Plant response rating, Foxtail, Green [7, 18]: 100
Foxtail, Green plant response rating [7, 23]: 25
Foxtail, Green plant response rating [7, 24]: 100
Lambsquarters plant response rating [8, 21]: 0
Lambsquarters plant response rating [8, 22]: 0
Plant response rating, Lambsquarters [8, 14]: 0
Plant response rating, Lambsquarters [8, 15]: 0
Plant response rating, Lambsquarters [8, 17]: 30
Plant response rating, Lambsquarters [8, 18]: 40
Lambsquarters plant response rating [8, 23]: 0
Lambsquarters plant response rating [8, 24]: 0
Morningglory plant response rating [9, 21]: 0
Morningglory plant response rating [9, 22]: 0
Plant response rating, Morningglory [9, 14]: 0
Plant response rating, Morningglory [9, 15]: 0
Plant response rating, Morningglory [9, 17]: 0
Plant response rating, Morningglory [9, 18]: 0
Morningglory plant response rating [9, 23]: 0
Morningglory plant response rating [9, 24]: 0
Pigweed plant response rating [10, 21]: 0
Pigweed plant response rating [10, 22]: 0
Plant response rating, Pigweed [10, 14]: 0
Plant response rating, Pigweed [10, 15]: 0
Plant response rating, Pigweed [10, 17]: 0
Plant response rating, Pigweed [10, 18]: 50
Pigweed plant response rating [10, 23]: 0
Pigweed plant response rating [10, 24]: 0
Surinam Grass plant response rating [11, 21]: 95
Surinam Grass plant response rating [11, 22]: 95
Plant response rating, Surinam Grass [11, 14]: 98
Plant response rating, Surinam Grass [11, 15]: 100
Plant response rating, Surinam Grass [11, 17]: 85
Plant response rating, Surinam Grass [11, 18]: 100
Surinam Grass plant response rating [11, 24]: 85
Oat, Wild plant response rating (wild oat (Avena fatua); [21]): 100
Oat, Wild plant response rating (wild oat (Avena fatua); [22]): 100
Plant response rating, Oat, Wild (wild oat (Avena fatua); [14]): 100
Plant response rating, Oat, Wild (wild oat (Avena fatua); [15]): 100
Plant response rating, Oat, Wild (wild oat (Avena fatua); [17]): 95
Plant response rating, Oat, Wild (wild oat (Avena fatua); [18]): 98
Oat, Wild plant response rating (wild oat (Avena fatua); [23]): 60
Oat, Wild plant response rating (wild oat (Avena fatua); [24]): 80
Cupgrass, Woolly plant response rating [12, 21]: 55
Plant response rating, Cupgrass, Woolly [12, 13]: 80
Plant response rating, Cupgrass, Woolly [12, 14]: 90
Plant response rating, Cupgrass, Woolly [12, 15]: 90
Plant response rating, Cupgrass, Woolly [12, 17]: 85
Plant response rating, Cupgrass, Woolly [12, 18]: 100
Cupgrass, Woolly plant response rating [12, 23]: 70
